Measured values from patent publication US20230416262A1, “TRPML MODULATORS” (Casma Therapeutics, Inc., priority 2020, published 2023).

System: TFEB
Assay: TFEB nuclear translocation assay
Assay type: cell-based
Details: Homo sapiens; HeLa wt or HeLa TRPML1 KO cells, treated for 2 hrs; ratio of nuclear to ring-region TFEB intensity
Description: For the TFEB nuclear translocation assay, HeLa wt or HeLa TRPML1 KO cells were plated at 2700 cells/well into black-walled, 384-well Cell carrier Ultra tissue culture treated plates in complete media and incubated overnight. The next day, cells are treated for 2 hrs with compounds and incubated at 37° C. Cells were then fixed for 30 minutes at room temperature in 4% final PFA and washed five times with 90 μL PBS. PBS is aspirated from the wells and the cells are blocked with 7.5 μL blocking buffer (1.1 PBS/Odyssey block buffer containing 0.1% triton x-100 and 1% goat serum). After 30-60 minutes of block, 7.5 μL of primary anti-TFEB (rabbit) antibody is added for a final dilution of 1:200 antibody in 15 μL blocking buffer. Plates are incubated overnight at 4° C. The following day, plates are washed again into PBS, 90 μL with 5 washes, all PBS is aspirated from the wells and the cells are incubated for 1 hr in 1:1000 goat-anti rabbit Alexa 488 secondary antibody, also containing 10 μg/mL Hoechst 33342. After the 1 hr RT incubation, plates are washed a final time into PBS, sealed with foil and imaged with an automated epifluorescence microscopy (PerkinElmer Operetta CLS). Four different fields were imaged per well using ×20 magnification for DAPI and FITC filter sets. Images were quantified using PerkinElmer Harmony software, briefly: apply flatfield correction (basic/advanced) for input images. Use the Find Nuclei building block with channel set at Hoechst to find the nuclei. Use the Find cytoplasm building block with channel set to Alexa 488 to find the cytoplasm. Use select cell region with Channel set at Alexa 488 and region of interest as Nuclei and define outer border at 0 μm and inner at 45 μm to cover complete nuclei. Use select cell region with Channel set at Alexa 488 and region of interest as ring region and define outer border at −5 μm and inner at 0 μm to define a ring around the nucleus. Use the find calculate intensity parameter to calculate intensity of the nuclear region and the ring region. Define results as Number of nuclei and ratio of A/B where A is Intensity of Nuclei and B is intensity of the ring region.

| SMILES | EC50 [µM] |
| --- | --- |
| Cc1cccc(-n2cc(S(=O)(=O)N3CC4(CCCC4)c4ccccc43)cn2)c1 [Compound I-75, 1′-{[1-(3-methylphenyl)-1H-pyrazol-4-yl]sulfonyl}-1′,2′-dihydrospiro[cyclopentane-1,3′-indole]] | 8.01 to 9.99 |
| CN(C)S(=O)(=O)c1ccc(S(=O)(=O)N2CC3(CCOC3)c3ccccc32)cc1 (stereo not shown) [Compound I-76, 4-({1,2-dihydrospiro[indole-3,3′-oxolan]-1-yl}sulfonyl)-N,N-dimethylbenzene-1-sulfonamide] | 2.01 to 8 |
| CN(C)S(=O)(=O)c1ccc(S(=O)(=O)N2CC3(CCCO3)c3ccccc32)cc1 (stereo not shown) [Compound I-77, 4-({1,2-dihydrospiro[indole-3,2′-oxolan]-1-yl}sulfonyl)-N,N-dimethylbenzene-1-sulfonamide] | ≤ 2 |
| CN(C)S(=O)(=O)c1ccc(S(=O)(=O)N2CC3(CCCC3)c3ncccc32)cc1 [Compound I-78, N,N-dimethyl-4-(spiro[cyclopentane-1,3′-pyrrolo[3,2-b]pyridin]-1′(2′H)-ylsulfonyl)benzenesulfonamide] | 2.01 to 8 |
| CN1CCC2(CC1)CN(S(=O)(=O)Cc1ccccc1)c1ccccc12 [Compound I-82, 1′-methyl-1-phenylmethanesulfonyl-1,2-dihydrospiro[indole-3,4′-piperidine]] | ≥ 10 |
| CN1CCC2(CC1)CN(S(=O)(=O)c1ccc(S(=O)(=O)N(C)C)cc1)c1ccccc12 [Compound I-84, N,N-dimethyl-4-({1′-methyl-1,2-dihydrospiro[indole-3,4′-piperidin]-1-yl}sulfonyl)benzene-1-sulfonamide] | ≥ 10 |
| O=S(=O)(Cc1ccccc1)N1CC2(CCN(CC(F)(F)F)CC2)c2ccccc21 [Compound I-85, 1-phenylmethanesulfonyl-1′-(2,2,2-trifluoroethyl)-1,2-dihydrospiro[indole-3,4′-piperidine]] | ≥ 10 |
| CN1CCC2(C1)CN(S(=O)(=O)Cc1ccccc1)c1ccccc12 (stereo not shown) [Compound I-88, 1′-methyl-1-phenylmethanesulfonyl-1,2-dihydrospiro[indole-3,3′-pyrrolidine]] | ≥ 10 |
| CN1CCC2(C1)CN(S(=O)(=O)c1ccc(C(F)F)cc1)c1ccccc12 (stereo not shown) [Compound I-89] | ≥ 10 |
| CN1CCC2(C1)CN(S(=O)(=O)c1ccc(S(=O)(=O)N(C)C)cc1)c1ccccc12 (stereo not shown) [Compound I-90, N,N-dimethyl-4-({1′-methyl-1,2-dihydrospiro[indole-3,3′-pyrrolidin]-1-yl}sulfonyl)benzene-1-sulfonamide] | ≥ 10 |
| CN(C)S(=O)(=O)c1ccc(S(=O)(=O)N2CC3(CCN(CC(F)(F)F)C3)c3ccccc32)cc1 (stereo not shown) [Compound I-93, N,N-dimethyl-4-{[1′-(2,2,2-trifluoroethyl)-1,2-dihydrospiro[indole-3,3′-pyrrolidin]-1-yl]sulfonyl}benzene-1-sulfonamide] | ≤ 2 |
| CN(C)S(=O)(=O)c1ccc(S(=O)(=O)N2CC3(CCN(CC4CCOCC4)C3)c3ccccc32)cc1 (stereo not shown) [Compound I-96, N,N-dimethyl-4-({1′-[(oxan-4-yl)methyl]-1,2-dihydrospiro[indole-3,3′-pyrrolidin]-1-yl}sulfonyl)benzene-1-sulfonamide] | 2.01 to 8 |
| CN(C)S(=O)(=O)c1ccc(S(=O)(=O)N2CC3(CN(Cc4ccccc4)C3)c3ccccc32)cc1 [Compound I-102, 4-({1-benzyl-1′,2′-dihydrospiro[azetidine-3,3′-indol]-1′-yl}sulfonyl)-N,N-dimethylbenzene-1-sulfonamide] | 2.01 to 8 |
| CN(C)S(=O)(=O)c1ccc(S(=O)(=O)N2CC3(CCN(c4ccc(Cl)cc4F)CC3)c3ccccc32)cc1 [Compound I-106, 4-{[1′-(4-chloro-2-fluorophenyl)-1,2-dihydrospiro[indole-3,4′-piperidin]-1-yl]sulfonyl}-N,N-dimethylbenzene-1-sulfonamide] | ≤ 2 |
| O=C(OCc1ccccc1)N1CCC2(C1)CN(S(=O)(=O)Cc1ccccc1)c1ccccc12 (stereo not shown) [Compound I-115, benzyl 1-phenylmethanesulfonyl-1,2-dihydrospiro[indole-3,3′-pyrrolidine]-1′-carboxylate] | 2.01 to 8 |
| CC(CS(=O)(=O)N1CC2(CCCC2)c2ccccc21)c1ccccc1 (stereo not shown) [Compound I-117, 1′-(2-phenylpropanesulfonyl)-1′,2′-dihydrospiro[cyclopentane-1,3′-indole]] | ≥ 10 |
| O=S(=O)(Cc1ccccc1)N1CC2(CCN(CC(F)(F)F)C2)c2ccccc21 (stereo not shown) [Compound I-120] | 2.01 to 8 |
| O=S(=O)(Cc1ccccc1)N1CC2(CCCCC2)c2ccccc21 [Compound I-121, 1′-(benzylsulfonyl)spiro[cyclohexane-1,3′-indoline]] | ≤ 2 |
| Cc1cc2n(n1)C1(CCCCC1)CN2S(=O)(=O)c1ccc(S(=O)(=O)N(C)C)cc1 [Compound I-123, N,N-dimethyl-4-({6′-methyl-1′,2′-dihydrospiro[cyclohexane-1,3′-pyrazolo[1,5-a]imidazol]-1′-yl}sulfonyl)benzene-1-sulfonamide] | 2.01 to 8 |
| CN(C)S(=O)(=O)c1ccc(S(=O)(=O)N2CC3(CCCCC3)n3nccc32)cc1 [Compound I-125, 4-({1′,2′-dihydrospiro[cyclohexane-1,3′-pyrazolo[1,5-a]imidazol]-1′-yl}sulfonyl)-N,N-dimethylbenzene-1-sulfonamide] | ≥ 10 |
| CN(C)S(=O)(=O)c1ccc(S(=O)(=O)N2CCC3(CCCCC3)c3ccccc32)cc1 [Compound I-128, 4-({2′,3′-dihydro-1′H-spiro[cyclohexane-1,4′-quinolin]-1′-yl}sulfonyl)-N,N-dimethylbenzene-1-sulfonamide] | ≤ 2 |
| CN(C)S(=O)(=O)c1ccc(S(=O)(=O)N2CC3(CCN(CC(F)(F)F)CC3)n3nccc32)cc1 [Compound I-144, N,N-dimethyl-4-{[1-(2,2,2-trifluoroethyl)-1′,2′-dihydrospiro[piperidine-4,3′-pyrazolo[1,5-a]imidazol]-1′-yl]sulfonyl}benzene-1-sulfonamide] | ≥ 10 |
| Cc1cc2n(n1)C1(CCCCC1)CN2S(=O)(=O)c1ccc(S(=N)(=O)N(C)C)cc1 (stereo not shown) [Compound I-146, N,N-dimethyl-4-({6′-methyl-1′,2′-dihydrospiro[cyclohexane-1,3′-pyrazolo[1,5-a]imidazol]-1′-yl}sulfonyl)benzene-1-sulfonoimidamide] | ≥ 10 |
| Cc1cc2n(n1)C1(CCCCC1)CN2S(=O)(=O)c1ccc2c(c1)C(C)(C)CO2 [Compound I-147, 1′-[(3,3-dimethyl-2,3-dihydro-1-benzofuran-5-yl)sulfonyl]-6′-methyl-1′,2′-dihydrospiro[cyclohexane-1,3′-pyrazolo[1,5-a]imidazole]] | ≥ 10 |
| CC(c1ccc(S(=O)(=O)N(C)C)cc1)N1CC2(CCCCC2)c2ccccc21 (stereo not shown) [Compound I-150, 4-(1-{1′,2′-dihydrospiro[cyclohexane-1,3′-indol]-1′-yl}ethyl)-N,N-dimethylbenzene-1-sulfonamide] | ≥ 10 |
| N=S(=O)(c1ccc(S(=O)(=O)N2CC3(CCCCC3)c3ccccc32)cc1)C1CC1 (stereo not shown) [Compound I-151, 1′-((4-(cyclopropanesulfonimidoyl)phenyl)sulfonyl)spiro[cyclohexane-1,3′-indoline]] | ≥ 10 |
| CN(C)S(=O)(=O)c1ccc(S(=O)(=O)N2CC3(CCCCC3)n3nc(C(F)(F)F)cc32)cc1 [Compound I-153, N,N-dimethyl-4-{[6′-(trifluoromethyl)-1′,2′-dihydrospiro[cyclohexane-1,3′-pyrazolo[1,5-a]imidazol]-1′-yl]sulfonyl}benzene-1-sulfonamide] | ≤ 2 |
| CN(C)S(=O)(=O)c1ccc(S(=O)(=O)N2CC3(CCCCC3)n3nc(C4CC4)cc32)cc1 [Compound I-257, 4-({6′-cyclopropyl-1′,2′-dihydrospiro[cyclohexane-1,3′-pyrazolo[1,5-a]imidazol]-1′-yl}sulfony1)-N,N-dimethylbenzene-1-sulfonamide] | ≤ 2 |
